Experimental data as given in BindingDB's records for doi:10.1021/jm00384a023 (1987).

Experiment: Inhibitor concentration required to block 50% of the specific [3H]PAF binding, obtained as natural product.

IC50	SMILES
500 nM	C=CCC1=CC2(OCC)C(=CC1=O)O[C@H](c1ccc(OC)c(OC)c1)[C@H]2C (some centres not stated)
70 nM	CCCC1=C[C@@]2(OC)C(=CC1=O)O[C@H](c1ccc(OC)c(OC)c1)[C@H]2C
